Earlier results in patent US6342251B1, “Compositions for nasal administration” (West Pharmaceutical Services Drug Delivery & Clinical …, priority 1997, dated 2002).

Assays:
[1] = patients, erectile dysfunction
[2] = Parkinson's disease

CN1CCc2cccc3c2[C@H]1Cc1ccc(O)c(O)c1-3 [apomorphine, (6aR)-5,6,6a, 7-tetrahydro-6-methyl-4H-dibenzo(d, e, g) quinoline-10, 11-diol hemihydrate]
side effects after nasal administration [1]: unacceptable side effects such as yawning, nausea, vomiting, dizziness, blurred vision, diaphoresis, pallor and mild hypertension
local reactions after intranasal administration [2]: transient nasal blockage and a burning sensation
